These results are taken from paper PMC11956017, “Design of Benzyl-triazolopyrimidine-Based NADPH Oxidase Inhibitors Leads to the Discovery of a Potent Dual Covalent NOX2/MAOB Inhibitor” (Journal of Medicinal Chemistry, 2025).

As a reminder, the IC50 is the concentration that inhibits the measured activity by half.

The target in assay [1] is T1, human NOX4 (Homo sapiens, UniProt Q9NPH5).
T1 construct: expressed in transfected cells; host or cells: HEK293 F cells, transient transfection (pTT22 and pYD7 vectors); isolated membranes
T1 sequence (Q9NPH5 1-578): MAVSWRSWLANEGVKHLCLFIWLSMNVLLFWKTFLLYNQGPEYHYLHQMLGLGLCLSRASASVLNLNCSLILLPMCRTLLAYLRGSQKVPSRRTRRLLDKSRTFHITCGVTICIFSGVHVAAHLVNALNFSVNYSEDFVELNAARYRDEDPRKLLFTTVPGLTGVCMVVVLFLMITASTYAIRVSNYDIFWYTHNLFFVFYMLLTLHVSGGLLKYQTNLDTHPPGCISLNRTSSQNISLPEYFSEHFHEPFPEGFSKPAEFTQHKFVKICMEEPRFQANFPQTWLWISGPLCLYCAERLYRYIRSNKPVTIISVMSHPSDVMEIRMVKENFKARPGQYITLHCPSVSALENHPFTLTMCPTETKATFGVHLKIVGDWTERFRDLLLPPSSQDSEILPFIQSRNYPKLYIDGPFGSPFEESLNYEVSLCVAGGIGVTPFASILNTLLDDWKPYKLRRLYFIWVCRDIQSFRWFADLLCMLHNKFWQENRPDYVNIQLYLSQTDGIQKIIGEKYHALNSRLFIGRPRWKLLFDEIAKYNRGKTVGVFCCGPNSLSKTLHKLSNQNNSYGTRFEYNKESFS
T1 sequence (P13498 1-195 partner): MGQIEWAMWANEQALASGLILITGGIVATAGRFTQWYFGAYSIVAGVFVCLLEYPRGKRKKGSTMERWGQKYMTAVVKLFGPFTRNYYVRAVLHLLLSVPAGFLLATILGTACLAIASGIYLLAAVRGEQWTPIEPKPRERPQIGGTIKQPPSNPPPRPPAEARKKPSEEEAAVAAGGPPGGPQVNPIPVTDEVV
Nature of the assay: Human NOX4 isolated membranes, Amplex Red/horseradish peroxidase coupled assay. In kind it is biochemical. To be noted: membrane-embedded; 40 μM NADPH; read-out: IC50 on human NOXs, NOX4 (AMPLEX RED). The method, then:
(§1) Activity assays for IC50 determinations were performed as previously described[40],[42] with modifications for covalent inhibitors. […] The estimated final protein concentrations based on the heme’s absorbance (ε414 nm = 131,000 M^–1 cm^–1) were 10–20 nM. Compounds were incubated for 1 h at 25 °C at varying concentrations, and reactions were initiated with 40 μM NADPH. Fluorescence was measured using a ClarioStar plate reader (excitation 572 nm/emission 583 nm).

Assay [2] concerns the target T2, human NOX5 (Homo sapiens, UniProt Q96PH1).
T2 construct: expressed in transfected cells; host or cells: HEK293 F cells, transient transfection (pEG BacMam vector); isolated membranes
T2 sequence (Q96PH1 1-719 isoform Q96PH1-4): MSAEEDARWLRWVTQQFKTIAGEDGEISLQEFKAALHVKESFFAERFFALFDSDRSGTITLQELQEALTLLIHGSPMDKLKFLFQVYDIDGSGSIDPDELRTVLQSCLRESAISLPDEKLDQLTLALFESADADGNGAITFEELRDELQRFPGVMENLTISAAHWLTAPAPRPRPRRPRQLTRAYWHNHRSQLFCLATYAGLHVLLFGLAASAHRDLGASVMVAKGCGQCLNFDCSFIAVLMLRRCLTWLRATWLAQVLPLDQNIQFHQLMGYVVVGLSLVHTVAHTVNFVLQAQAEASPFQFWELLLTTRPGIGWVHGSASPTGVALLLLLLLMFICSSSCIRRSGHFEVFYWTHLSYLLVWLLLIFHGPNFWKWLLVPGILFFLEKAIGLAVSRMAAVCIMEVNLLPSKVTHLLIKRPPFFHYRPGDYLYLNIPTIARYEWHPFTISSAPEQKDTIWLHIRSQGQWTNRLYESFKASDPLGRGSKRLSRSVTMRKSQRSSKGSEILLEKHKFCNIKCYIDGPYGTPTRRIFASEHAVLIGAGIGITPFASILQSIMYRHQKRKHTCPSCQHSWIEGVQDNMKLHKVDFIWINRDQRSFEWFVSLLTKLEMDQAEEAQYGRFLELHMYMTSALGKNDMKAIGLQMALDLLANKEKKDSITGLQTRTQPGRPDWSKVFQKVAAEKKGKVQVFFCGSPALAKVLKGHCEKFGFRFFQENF
Nature of the assay: Human NOX5 isolated membranes, Amplex Red/horseradish peroxidase coupled assay. In kind it is biochemical. To be noted: membrane-embedded, 40 μM NADPH; for IC50: read-out: IC50 on human NOXs, NOX5 (AMPLEX RED). The method, then:
as §1

Assay [3] addresses T3, Purified human NOX2 (Homo sapiens, UniProt P04839).
T3 construct: NOX2 was expressed as native protein in X-CGD PLB-985 cells transduced with the RD114 pseudotyped MFGS-NOX2 vector; made in house; host or cells: X-CGD PLB-985 cells transduced with MFGS-NOX2; Cytosolic proteins made in E. coli
Nature of the assay: Purified human NOX2-p22phox, NADPH depletion assay. In kind it is biochemical. The settings on record: for IC50: 200 nM NOX2, 240 μM NADPH, activated. The method, then:
The NADPH depletion assay on human NOX2 for IC50 determinations was performed as described[40],[42] with variations for covalent inhibition. Briefly, the catalytic activity was measured by monitoring the absorbance at 340 nm with a Cary 100 UV–vis spectrophotometer (Varian). A 200 nM purified NOX2-p22^phox heterodimer was added to a 200 μL reaction mix containing a 65 mM sodium phosphate buffer (pH 7.0), 50 μM FAD, 130 μM LiDS, and 1 μM recombinant p67^phox, p47^phox, and Rac1 Q61L. Inhibitors were added at varying concentrations (7 nM–200 μM) and incubated for 1 h at 25 °C. The reaction was started by the addition of 240 μM NADPH.

Assay [4] deals with NOX2 (Homo sapiens, UniProt P04839). Description: In cellulo NOX2 activity in NOX2-overexpressing PLB-985 cells, cytochrome c reduction. In kind it is cell-based. The arrangement: NOX2 was expressed as native protein in X-CGD PLB-985 cells transduced with the RD114 pseudotyped MFGS-NOX2 vector; expressed in transfected cells; host or cells: X-CGD PLB-985 cells transduced with MFGS-NOX2 vector. To be noted: for IC50: intact PMA-stimulated cells, cytochrome c 200 μM. How it is done:
Measurement of human NOX2 activity in cells was performed by a cytochrome c (200 μM) reduction assay. Superoxide production of intact PLB-985 cells (3 × 10^5 cells) was measured after PMA stimulation (5 μM) as reported.[40],[42] The compounds (0.04–40 μM) were added to the prestimulated cells and incubated for 1 h at 37 °C and 5% CO2, 120 rpm (New Brunswick S41i incubator shaker, Eppendorf). The absorbance at 550 nm was followed at 37 °C over a time course of 20 min in a ClarioStar plate reader (BMG Labtech).

Some results are limits rather than exact numbers.

Chain of NOX2 (P04839 2-570 limits assumed, one chain of several): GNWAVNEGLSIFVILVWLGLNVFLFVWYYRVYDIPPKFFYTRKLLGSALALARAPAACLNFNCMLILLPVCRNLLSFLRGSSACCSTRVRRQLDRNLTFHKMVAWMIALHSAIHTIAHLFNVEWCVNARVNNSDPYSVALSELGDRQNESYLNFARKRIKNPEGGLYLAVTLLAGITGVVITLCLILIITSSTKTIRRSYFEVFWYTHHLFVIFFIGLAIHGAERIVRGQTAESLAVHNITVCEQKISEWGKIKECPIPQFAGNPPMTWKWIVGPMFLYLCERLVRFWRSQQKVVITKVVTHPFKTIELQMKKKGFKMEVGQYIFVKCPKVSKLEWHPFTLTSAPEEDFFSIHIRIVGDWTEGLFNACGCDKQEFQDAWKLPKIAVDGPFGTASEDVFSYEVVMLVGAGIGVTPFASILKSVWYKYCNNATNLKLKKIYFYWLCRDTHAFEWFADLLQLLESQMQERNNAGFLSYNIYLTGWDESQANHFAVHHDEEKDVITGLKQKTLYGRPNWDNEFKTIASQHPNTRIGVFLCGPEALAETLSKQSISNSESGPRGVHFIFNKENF
Chain of NOX2 (P19878 whole entry partner, one chain of several): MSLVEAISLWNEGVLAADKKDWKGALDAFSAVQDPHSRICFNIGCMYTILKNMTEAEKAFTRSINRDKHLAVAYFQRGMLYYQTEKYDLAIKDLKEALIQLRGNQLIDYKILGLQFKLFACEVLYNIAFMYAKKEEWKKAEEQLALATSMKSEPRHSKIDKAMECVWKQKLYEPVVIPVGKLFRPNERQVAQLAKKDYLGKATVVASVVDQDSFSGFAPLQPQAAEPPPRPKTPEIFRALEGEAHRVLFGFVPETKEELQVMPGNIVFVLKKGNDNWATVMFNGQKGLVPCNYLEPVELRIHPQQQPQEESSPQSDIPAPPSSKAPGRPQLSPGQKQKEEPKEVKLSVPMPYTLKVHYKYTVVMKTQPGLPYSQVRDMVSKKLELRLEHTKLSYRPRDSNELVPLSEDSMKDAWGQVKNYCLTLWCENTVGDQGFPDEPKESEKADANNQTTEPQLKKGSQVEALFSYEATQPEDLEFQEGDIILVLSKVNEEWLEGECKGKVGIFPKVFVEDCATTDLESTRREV
Chain of NOX2 (P14598 whole entry partner, one chain of several): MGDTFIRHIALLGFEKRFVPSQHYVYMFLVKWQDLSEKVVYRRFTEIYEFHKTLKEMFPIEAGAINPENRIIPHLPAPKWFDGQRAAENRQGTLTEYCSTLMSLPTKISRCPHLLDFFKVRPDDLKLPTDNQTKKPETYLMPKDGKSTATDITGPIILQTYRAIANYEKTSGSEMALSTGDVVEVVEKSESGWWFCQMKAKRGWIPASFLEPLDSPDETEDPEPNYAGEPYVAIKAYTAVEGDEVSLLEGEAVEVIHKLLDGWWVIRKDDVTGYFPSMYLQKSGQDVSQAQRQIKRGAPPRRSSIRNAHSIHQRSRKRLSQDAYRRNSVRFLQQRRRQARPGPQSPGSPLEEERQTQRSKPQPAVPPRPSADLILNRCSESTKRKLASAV

Consider `C#CCN(C)Cc1ccc(Cn2nnc3c(Sc4nc5ccccc5o4)ncnc32)cc1` [Compound 9a, N-(4-((7-(Benzo[d]oxazol-2-ylthio)-3H-[1,2,3]triazolo[4,5-d]pyrimidin-3-yl)methyl)benzyl)-N-methylprop-2-yn-1-amine], for which the half-inhibitory concentration (IC50) in assay [1] was 42 ± 16 µM; in assay [2], 5.2 ± 0.1 µM; in assay [3] it was 0.155 ± 0.03 µM; in assay [4], 0.135 ± 0.02 µM. The “potency on purified NOX2 relative to VAS2870 (more potent)” value in assay [3] (purified NOX2) is reported as “over 20 fold”. The “potency against NOX2 in cellulo relative to VAS2870 (more potent)” value in assay [4] (PLB-985 cells) is given as 2 fold.

Regarding `CCCNC(=O)c1ccc(Cn2nnc3c(Sc4nc5ccccc5o4)ncnc32)cc1` [Compound 8a, (4-((7-Benzo[d]oxazol-2-yl-thio)-3H-[1,2,3]triazole[4,5-d]pyrimidin-3-yl)methyl)-N-(propyl)benzamide], the IC50 in assay [1] is 21.8 ± 1.1 µM; in assay [2] it was 6.5 ± 0.6 µM; in assay [3] it was 3.3 ± 0.06 µM; in assay [4], 2.81 ± 0.88 µM.

`C#CCNC(=O)c1ccc(Cn2nnc3c(Sc4nc5ccccc5o4)ncnc32)cc1` [Compound 8b, (4-((7-Benzo[d]oxazol-2-yl-thio)-3H-[1,2,3]triazole[4,5-d]pyrimidin-3-yl)methyl)-N-(prop-2-in-1-yl)benzamide]: the concentration for half-maximal inhibition (IC50) is 57.9 ± 7 µM in assay [1], above 100 µM in assay [2], 20.1 ± 0.5 µM in assay [3] and 17.6 ± 3.4 µM in assay [4]. Besides, in assay [2], the “IC50 on human NOXs, NOX5 (AMPLEX RED)” value is “inactive”.
